# “Also recorded” adds a separate entry of the source.
# B1: Cystatin S: inhibitor of Cathepsin S, which cleaves CD74 in B cells, dendritic cells, and macrophages (protein, UniProt P01036 21-141, looked up)
# Cystatin-S: SSSKEENRIIPGGIYDADLNDEWVQRALHFAISEYNKATEDEYYRRPLQVLRAREQTFGGVNYFFDVEVGRTICTKSQPNLDTCAFHEQPELQKKQLCSFEIYEVPWEDRMSLVNSRCQEA
# How the values were obtained:
# [1] = tested on: cell surface CLIP on immune cells in the spleen; experiment: Dose response of CD74 cleavage inhibitors on cell surface CLIP in the spleen after FPI; assay type: in vivo; settings: for cell surface CLIP on immune cells in the spleen / optimal dose to reduce CLIP after FPI: administered 30 min after FPI, spleen at 1 day post-FPI
# Procedure: FIGS. 5A-5C is a set of bar graphs showing a dose response curve of inhibitors of various specific mechanisms of cleavage of full-length CD74 into CLIP 24 hours after FPI.
# In addition to inhibiting MIF-binding to CD74, we have reduced the level of CLIP by inhibiting the distinct mechanisms by which CD74 is cleaved. Drugs that inhibit CD74 cleavage have been administered 30 min after FPI and the levels of CLIPs in the spleen have been assessed at 1 day post-FPI. […] We also found, using the proteasomal inhibitor, Bortezomib (PS341), that this compound was most efficacious at reducing cell-surface CLIP on B cells at 0.1 mg·kg, i.p. (FIG. 5B). Finally, Cystatin S is an inhibitor of Cathepsin S, which cleaves CD74 in B cells, dendritic cells, and macrophages^11,12. […] The optimal dosage is 50 mg/kg (FIG. 5C). At concentrations greater than 50 mg/kg, the compound appeared to be toxic under the tested conditions.
# [2] = tested on: CLIP+ B cells in the brain; experiment: Brain flow cytometry for CLIP+ B cells after fluid percussion injury (FPI); assay type: in vivo, mouse
# Procedure: The contributions of full-length cell-surface CD74 and its proteolytic products (CLIPs) in the pathogenic mechanisms that follow TBI were assessed. First, we determined if full-length CD74 on B cells was altered after fluid percussion injury (FPI) in an FPI model of TBI. A mouse model of TBI was produced and splenoctyes from those mice were isolated following FPI. The model, referred to as the “fluid percussion injury model”, is referenced in Tobin et al Acta Neuropathologica Communications 2014. Splenocytes were stained with anti-CD19 for B cells and counterstained with anti-CD74.
# In order to address the innate immune components of CD74, a series of experiments in which MIF-binding to CD74 was antagonized at 30 min after FPI were performed. MIF mRNA levels are elevated after TBI. This occurs as a part of the innate immune response, via MIF-binding to, and signaling through cell surface CD74^35. We utilized ISO1, a small molecule that inhibits MIF-binding to CD74, to determine whether inhibition of MIF-binding would alter FPI-induced, CLIP-related cellular (FIG. 2) and neuroanatomical outcomes (FIGS. 3 and 4). ISO1 was administered at 30 mins after FPI and performed brain flow cytometry to assess what percent of leukocytes are CLIP+ B cells. It should be noted that less than 0.001 B cells enter the brain in naïve mice so they are not included in the graph.
# GFAP+ astrocytes = experiment: GFAP-labeling of the astrocytic response in perilesion cortex after FPI; assay type: in vivo, mouse; settings: treatment at 30 mins after FPI (ISO1 10 mg/kg), 3 days after FPI
# [3] = tested on: FJC-labeled cells in the perilesion area; experiment: Fluorojade C (FJC) histology of neurodegeneration in peri-injury cortex after FPI; assay type: in vivo, mouse; settings: 10 mg/kg at 30 mins after FPI; 3 days after FPI
# Procedure: FIG. 3A is a photomicrograph depicting FJC-staining in the peri-lesion area of a mouse treated with DMSO 30 mins after FPI. 3B is a comparative photomicrograph from a mouse treated with ISO1 at 30 mins after FPI. […] N=6 per group.
# We assessed the effects of 10 mg/kg of ISO1 administered at 30 mins after FPI on neurodegeneration (FIG. 3), and the astrocytic response (FIG. 4), in peri-injury cortex, at 3 days after FPI.
# CLIPs in MHCII = settings: treatment with Cystatin S; literature reference; cited from earlier work
molecule,measurement,setting,value
CC(C)C[C@H](NC(=O)[C@H](Cc1ccccc1)NC(=O)c1cnccn1)B(O)O [Bortezomib],dose most efficacious at reducing cell-surface CLIP on B cells,"[1]; i.p., 30 min after FPI, 24 hours after FPI",0.1 mg·kg
C[C@H]1CCC/C=C/[C@@H]2C[C@H](O)C[C@H]2[C@H](O)/C=C/C(=O)O1 [Brefeldin A],cell surface CLIP on immune cells in the spleen,[1],reduces cell surface CLIP on immune cells in the spleen
same,optimal dose to reduce CLIP after FPI,[1],5 mg/kg
"COC(=O)CC1CC(c2ccc(O)cc2)=NO1 (centres unmarked) [ISO1, 4,5-Dihydro-3-(4-hydroxyphenyl)-5-isoxazoleacetic acid methyl ester]",percent of CLIP+ B cells in the brain,"[2]; administered at 30 min after FPI, brain at 24 hrs after FPI",significantly reduced the percentage of CLIP+ B cells in the brain; also recorded: reduced the percent of B cells that express CLIP in the brain
same,dose providing the most significantly robust decrease in the percent of CLIP+ B cells entering the brain,[2]; at 30 mins after FPI,10 mg/kg
same,astrocytic response (GFAP-labeling) in perilesion cortex,GFAP+ astrocytes,significantly reduced the peak astrocyte response; also recorded: significantly reduced GFAP-labeling
same,neurodegeneration (total number of FJC-labeled cells in the perilesion area),[3],no effect on neurodegeneration; also recorded: no effect on the total number of FJC-labeled cells
B1,level of CLIPs in MHCII,CLIPs in MHCII,reduces the level of CLIPs in MHCII
same,concentrations at which the compound appeared to be toxic,"[1]; FPI mice, under the tested conditions",greater than 50 mg/kg
same,cell surface CLIP on immune cells in the spleen,[1],reduction in immune cell-surface CLIP; also recorded: reduced immune cell-surface CLIP
same,optimal dose to reduce CLIP after FPI,[1],50 mg/kg

# — patent publication US20220143128A1, “METHODS FOR TREATING TRAUMATIC BRAIN INJURY” (BCell Solutions, Inc., priority 2018, published 2022)
